# Data from patent publication US7893083B2, “Method of treating genital herpes” (priority 2003, dated 2011).
# Assays:
# [1] = tested on: viral rhinitis
# From the text: In each of the tests, an imiquimod salve was used. The formulation was that commonly used to treat warts and sold under the brand name Aldara™. The salve was applied to each naris of the test subject by use of a common cotton swab. Either a 4 mm^3 dab of salve or ½ pack of 5% Aldara™ was placed on the swab head. The swab head was inserted into a naris. The swab was moved around inside the naris to distribute the salve over the mucosal membrane of the naris. Immediately, after application of the Aldara™ to the subject's first naris, a swab was used to apply the Aldara™ to the subject's second naris. Immediately after application to each naris, the salve was massaged into the mucosal membrane of each naris.
# A test sample of six patients was treated for viral rhinitis using imiquimod (5% topical cream Aldara™, manufactured by 3M Corporation, St. Paul, Minn.). The patients were diagnosed with viral rhinitis due to initial symptoms such as congested nasal passages (rhinitis), nasal drip or rhinorrhea, and sneezing. Contents from ½ packet of a standard imiquimod formulation such as, for example, Aldara™ were applied with a cotton swab into both nares by massaging gently but thoroughly. Approximately the contents from ½ packet of 5% Aldara™ was applied thoroughly along the inside surface of both nares. Initial application of Aldara™ to all the six patients occurred within 24 hours after the appearance of first symptoms resembling viral rhinitis, in order to maximize the efficiency of imiquimod in stimulating the immune system when the viral load is presumably smaller. The procedure was repeated every 12 hours for up to 48 hours. The imiquimod packets were refrigerated after opening, and the remaining contents were used for subsequent applications.
# The patients were monitored for changes in the viral rhinitis symptoms.
# [2] = tested on: HSV-2; conditions: 235 human patients; topical application to herpes lesions; cited from earlier work
# [3] = tested on: purified plasmacytoid dendritic cells; conditions: cited from earlier work
# [4] = tested on: IFN-a mRNA; assay: IFN-a mRNA in postnasal swabs by quantitative competitive RT-PCR in macaques
# [5] = tested on: TNF-a; assay: TNF-a ELISA of nasal secretions after nasal application of imiquimod in macaques; assay type: in vivo, Macaca mulatta
# From the text: (§1) The assay was limited to examining nasal secretions following nasal application (both nares) of imiquimod, because it is believed that this is the entry site where an immune response will be first observed. The assay evaluated the appearance of […] IFN-α and TNF-a in Macaca mulatta macaques and compared it with a control group treated with a base cream (without imiquimod) or simply anesthetized for the same time interval as the treated group.
# (§2) The significance of the data is two-fold. First, intranasal administration of imiquimod cream (5%) produced enough IFN-a in a short period of time, so the cream can be applied daily in order to have 5-6 h of good efficacy. Thus, for example, one can begin applying the cream prior to encountering a known viral area such as an airplane. However, the cream has known cytotoxic effects (mediated through the cytokine production), especially if applied for weeks, so extended application would not be recommended. In the assay, TNF-a remained high for at least 6 h. In the treated group of macaques, the cream was washed away with warm water after the experiments. […] The cream needs to be applied to induce maximum concentration of IFN-a, but it may be removed when TNF-a continues to be elevated (after 6 h).
# (§3) The control group (n=3) and the treated group (n=5) were sedated with glycopyrolate 0.01 mg/kg+acetaminophen 0.2 mg/kg and anesthetized with zolazepam (Telazol) 10 mg/kg intramuscular. […] Physical examination after each sample and at 6 h, 12 h, and 24 h post anesthesia consisted of examining each macaque for fever, erythema, erosion, flaking, and lacrimation.
# (§4) IFN-a and TNF-a enzyme-linked immunoabsorbent assays (ELISA). Levels of IFN-a and TNF-a were measured using commercially available multispecies kit (PBL Biomedical Laboratories) (product #41105-1). The range of detection was 10-500 pg/ml (high sensitivity protocol).
# [6] = biological target: T1, TLR7 (Homo sapiens, UniProt Q9NYK1); conditions: cited from earlier work
# T1 sequence (Q9NYK1 27-1049): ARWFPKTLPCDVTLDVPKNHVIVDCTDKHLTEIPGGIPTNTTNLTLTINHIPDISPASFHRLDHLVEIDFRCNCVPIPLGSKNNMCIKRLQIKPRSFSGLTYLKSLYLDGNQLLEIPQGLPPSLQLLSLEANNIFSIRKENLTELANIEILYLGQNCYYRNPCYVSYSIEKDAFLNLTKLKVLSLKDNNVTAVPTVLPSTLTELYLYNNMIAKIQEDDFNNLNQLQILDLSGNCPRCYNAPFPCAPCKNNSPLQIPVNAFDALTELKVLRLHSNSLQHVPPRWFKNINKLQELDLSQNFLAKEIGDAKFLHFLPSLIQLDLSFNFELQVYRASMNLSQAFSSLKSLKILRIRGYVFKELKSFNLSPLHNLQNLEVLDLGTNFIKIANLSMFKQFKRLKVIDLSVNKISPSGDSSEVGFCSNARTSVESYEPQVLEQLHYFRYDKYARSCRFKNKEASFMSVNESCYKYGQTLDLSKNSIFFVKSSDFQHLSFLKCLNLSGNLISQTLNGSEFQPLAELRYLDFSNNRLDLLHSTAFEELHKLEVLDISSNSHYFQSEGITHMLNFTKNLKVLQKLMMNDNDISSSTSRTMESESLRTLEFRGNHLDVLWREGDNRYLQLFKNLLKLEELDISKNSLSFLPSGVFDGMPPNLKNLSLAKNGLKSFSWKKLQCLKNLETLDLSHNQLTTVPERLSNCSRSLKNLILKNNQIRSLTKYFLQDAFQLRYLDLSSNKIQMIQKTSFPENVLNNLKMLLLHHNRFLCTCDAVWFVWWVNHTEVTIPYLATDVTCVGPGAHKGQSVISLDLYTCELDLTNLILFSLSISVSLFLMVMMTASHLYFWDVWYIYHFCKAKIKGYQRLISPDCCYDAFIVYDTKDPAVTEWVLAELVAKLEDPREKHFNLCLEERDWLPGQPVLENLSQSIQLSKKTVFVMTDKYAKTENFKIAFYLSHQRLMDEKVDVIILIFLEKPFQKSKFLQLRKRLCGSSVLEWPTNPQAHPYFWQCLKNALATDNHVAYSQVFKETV
# [7] = tested on: IFN-a; assay: IFN-a ELISA of nasal secretions after nasal application of imiquimod in macaques; assay type: in vivo, Macaca mulatta
# From the text: as §1, §2, §3, §4
# [8] = Physical examination of macaques for adverse or cytotoxic effects after nasal Aldara
# [9] = tested on: HSV-2; assay: Remission interval between genital herpes outbreaks after intranasal Aldara regimens (Example 3); assay type: in vivo, human; conditions: after 2 to 4 regimens
# Method: The patients were diagnosed with HSV-2 due to typical outbreak symptoms such as lesions. […] Thus, the contents were applied thoroughly along the inside surface of both nares. Initial application of Aldara™ to all the four patients occurred within 12 hours after the appearance of first symptoms resembling an outbreak of genital herpes. The application procedure was repeated every 12 hours up to 48 hours so that a total of four applications was administered to each patient.
# Prior to treatment with Aldara™, the four patients were having herpes outbreaks at fairly regular intervals. Patients 1, 2 and 3 were experiencing outbreaks every 2 to 3 months and Patient 4 was having outbreaks once a month. Each of the four patients then began treatment by undergoing the 48 hour Aldara™ regimen detailed above each time he or she experienced an outbreak. After undergoing 2 to 4 regimens, each patient experienced a prolonged period of remission before the next outbreak.
# [10] = tested on: viral rhinitis; assay: Viral rhinitis test subjects, delayed or once-daily Aldara in each nostril (Example 2); assay type: in vivo, human; conditions: applied more than 2 days after the onset of the cold symptoms
# Method: The swab head was inserted into a naris.
# Infected Test Subject #1 developed a sore throat with tingling in larynx, pharynx and uvula. 12 hours later, Subject 1 also developed congestion of the nose. One day later, the subject's initial symptoms intensified, and the subject further developed systemic symptoms such as malaise and headache. More than twenty four hours after the initial viral rhinitis symptoms appeared, Aldara™ was applied in each nostril with a Q-tip swab.
# A 4 mm^3 dab of salve was placed on the swab head. The swab head was inserted into a naris. […] The subject was also treated with 2 teaspoons of standard cough suppressant guaifenesin/dextromethorphan (Wal-Tussin). The next day, malaise and headache were more pronounced and Aldara™ was reapplied with Q-tip to each nostril as described above. Also, 2 teaspoons of guaifenesin/dextromethorphan was administered.
# Infected Test Subject #2 developed common cold with rhinorrhea and nose congestion. Aldara™ was applied once to each nostril every day for 3 days.
# [11] = nasal secretions, p<0.0001 versus control group
smiles,measurement,setting,value
CC(C)Cn1cnc2c(N)nc3ccccc3c21 [imiquimod],Effect of accidental inhalation of imiquimod,[1]; one patient inhaled imiquimod,severe flu-like symptoms that spontaneously subsided within 24 hours
same,Aggravation of ulcerative colitis during treatment,[1]; one patient with ulcerative colitis,did not suffer any further aggravation
same,"Complete disappearance of symptoms (nasal congestion, sore throat, headache; malaise), time of treatment","[1]; six patients, untreated viral rhinitis about a week or 10 days",≤ 48 h
same,Side effects reported by patients,[1]; throughout the course of treatment,No untoward side effects
same,"Outbreak recurrence times, imiquimod versus placebo",[2],no statistically significant difference
same,IFN-a induction,[3],induce IFN-a
same,"IFN-a level in treated animals, mean","[4]; samples taken 3-5 h after application, p=0.004 versus controls",2.3 IFN-a/albumin mRNA×10^3
same,"IFN-a level in treated animals, range","[4]; samples taken 3-5 h after application, related to albumin mRNA",0.84-5.20 mRNA×10^3
same,Increase of IFN-a messenger RNA levels in nasal secretions compared with untreated macaques,[4]; single nasal application,2-5 fold
same,TNF-a level relative to the controls,[5]; 6 h post nasal treatment,3 times
same,TNF-a level,[5]; 6 h post treatment,remaining high
same,"TNF-a increase over time (ELISA, FIG. 6B)",[5]; [11],540 ng/mg protein
same,Time of TNF-a peak,[5]; post treatment,4 h
same,Activity at TLR7,[6],TLR7 agonists
same,IFN-a level relative to basal level,[7]; 3 h post treatment,5 times basal level
same,IFN-a level,[7]; 4 h post treatment,near maximal level
same,IFN-a level,[7]; 6 h post treatment,near basal level
same,"IFN-a increase over time (ELISA, FIG. 6A)",[7]; [11],630 ng/mg protein
same,Time of rapid induction of IFN-a post treatment,[7]; single nasal application,1 to 5 h
same,Adverse reactions to treatment in macaques,[8]; cream used during short period of time,No adverse reactions
same,Cytotoxic effects on examination,"[8]; examined at 6 h, 12 h, or 24 h, cream washed away after the experiments","No animal had cytotoxic effects when examined at 6 h, 12 h, or 24 h, except one animal, which had an episode of lacrimation for 12 h post treatment"
same,Post-Treatment Remission Interval (Approximate),"[9]; Patient 1, pre-treatment interval 2-3 months",~3.5 years
same,Post-Treatment Remission Interval (Approximate),"[9]; Patient 2, pre-treatment interval 2-3 months",~6 months
same,Post-Treatment Remission Interval (Approximate),"[9]; Patient 3, pre-treatment interval 2-3 months",~10 months
same,Post-Treatment Remission Interval (Approximate),"[9]; Patient 4, pre-treatment interval 1 month",~2 months
same,Effectiveness of the treatment with late application,[10],decreased markedly
